Consider three compounds from ChEMBL document CHEMBL4609983, “Pan-specific and partially selective dye-labeled peptidic inhibitors of the polycomb paralog proteins” (Bioorg Med Chem, 2020).

In data set [1] the target is Chromobox protein homolog 1 (Homo sapiens, UniProt P83916). Put plainly: Binding affinity to CBX1 (unknown origin) assessed as dissociation constant by fluorescence polarization analysis.
Data set [2] has as its target T1, Chromobox protein homolog 2 (Homo sapiens, UniProt Q14781).
T1 sequence (Q14781 whole entry): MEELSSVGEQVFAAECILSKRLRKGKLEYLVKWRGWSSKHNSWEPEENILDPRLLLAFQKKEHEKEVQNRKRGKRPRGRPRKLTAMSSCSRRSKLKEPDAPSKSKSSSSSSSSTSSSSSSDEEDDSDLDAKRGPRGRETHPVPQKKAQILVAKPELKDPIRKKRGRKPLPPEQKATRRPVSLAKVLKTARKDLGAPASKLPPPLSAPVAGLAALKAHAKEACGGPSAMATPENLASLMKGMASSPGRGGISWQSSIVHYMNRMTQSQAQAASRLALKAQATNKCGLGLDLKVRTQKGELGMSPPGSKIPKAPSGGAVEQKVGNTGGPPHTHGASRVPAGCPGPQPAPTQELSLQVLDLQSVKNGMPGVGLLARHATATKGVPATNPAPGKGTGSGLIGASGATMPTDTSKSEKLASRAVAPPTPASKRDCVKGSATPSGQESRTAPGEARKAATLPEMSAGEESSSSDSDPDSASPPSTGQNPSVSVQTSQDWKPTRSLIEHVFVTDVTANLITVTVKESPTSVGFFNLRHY
Put plainly: Binding affinity to CBX2 (unknown origin) assessed as dissociation constant by fluorescence polarization analysis. A general note: Polarisation of emitted light reports the rotation of a fluorescent probe.

The target in data set [3] is T2, E3 SUMO-protein ligase CBX4 (Homo sapiens, UniProt O00257).
T2 sequence (O00257 whole entry): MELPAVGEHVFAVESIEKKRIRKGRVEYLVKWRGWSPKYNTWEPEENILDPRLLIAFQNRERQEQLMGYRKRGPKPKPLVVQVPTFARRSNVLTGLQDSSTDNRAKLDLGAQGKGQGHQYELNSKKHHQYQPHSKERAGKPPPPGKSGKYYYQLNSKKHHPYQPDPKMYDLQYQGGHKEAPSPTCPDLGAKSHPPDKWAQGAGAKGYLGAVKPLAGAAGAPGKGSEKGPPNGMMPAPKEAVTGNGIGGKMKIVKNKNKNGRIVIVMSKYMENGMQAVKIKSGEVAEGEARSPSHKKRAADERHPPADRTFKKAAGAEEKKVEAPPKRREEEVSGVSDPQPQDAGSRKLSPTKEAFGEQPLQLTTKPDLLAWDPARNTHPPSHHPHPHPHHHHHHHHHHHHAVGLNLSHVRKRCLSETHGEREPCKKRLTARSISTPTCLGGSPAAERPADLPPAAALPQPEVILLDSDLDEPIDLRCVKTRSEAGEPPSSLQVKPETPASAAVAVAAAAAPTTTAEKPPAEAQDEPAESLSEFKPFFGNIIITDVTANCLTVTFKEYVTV
Put plainly: Binding affinity to CBX4 (unknown origin) assessed as dissociation constant by fluorescence polarization analysis.

For data set [4], the target named is T3, Chromobox protein homolog 6 (Homo sapiens, UniProt O95503).
T3 sequence (O95503 whole entry): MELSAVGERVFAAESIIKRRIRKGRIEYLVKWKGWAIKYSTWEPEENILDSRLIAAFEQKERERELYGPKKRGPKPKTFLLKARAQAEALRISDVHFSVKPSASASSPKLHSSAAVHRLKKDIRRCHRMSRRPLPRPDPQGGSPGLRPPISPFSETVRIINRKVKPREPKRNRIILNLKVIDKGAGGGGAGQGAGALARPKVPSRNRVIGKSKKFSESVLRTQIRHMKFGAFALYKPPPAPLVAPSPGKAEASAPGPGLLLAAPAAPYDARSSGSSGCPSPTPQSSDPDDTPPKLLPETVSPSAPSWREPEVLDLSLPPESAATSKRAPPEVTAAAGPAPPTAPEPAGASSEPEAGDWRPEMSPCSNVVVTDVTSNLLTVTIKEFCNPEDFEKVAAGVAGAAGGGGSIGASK
Put plainly: Binding affinity to CBX6 (unknown origin) assessed as dissociation constant by fluorescence polarization analysis.

The target of data set [5] is T4, Chromobox protein homolog 7 (Homo sapiens, UniProt O95931).
T4 sequence (O95931 whole entry): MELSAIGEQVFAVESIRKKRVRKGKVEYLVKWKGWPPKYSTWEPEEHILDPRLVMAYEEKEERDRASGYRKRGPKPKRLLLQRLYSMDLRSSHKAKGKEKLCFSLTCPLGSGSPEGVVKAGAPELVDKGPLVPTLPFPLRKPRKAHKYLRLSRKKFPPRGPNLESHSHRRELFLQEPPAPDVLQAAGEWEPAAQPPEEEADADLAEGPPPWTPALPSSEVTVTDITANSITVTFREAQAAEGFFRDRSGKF
Put plainly: Binding affinity to CBX7 (unknown origin) assessed as dissociation constant by fluorescence polarization analysis.

The target of data set [6] is T5, Chromobox protein homolog 8 (Homo sapiens, UniProt Q9HC52).
T5 sequence (Q9HC52 whole entry): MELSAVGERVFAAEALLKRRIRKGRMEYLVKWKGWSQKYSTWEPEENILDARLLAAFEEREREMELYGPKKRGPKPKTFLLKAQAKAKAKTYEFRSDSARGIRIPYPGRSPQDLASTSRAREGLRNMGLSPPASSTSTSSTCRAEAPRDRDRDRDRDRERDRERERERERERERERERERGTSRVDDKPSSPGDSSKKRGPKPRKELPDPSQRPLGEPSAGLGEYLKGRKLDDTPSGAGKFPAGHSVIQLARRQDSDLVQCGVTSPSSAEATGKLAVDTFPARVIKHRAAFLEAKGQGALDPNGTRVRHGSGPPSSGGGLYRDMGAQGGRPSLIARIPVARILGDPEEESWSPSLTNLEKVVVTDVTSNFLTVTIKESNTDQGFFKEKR
Put plainly: Binding affinity to CBX8 (unknown origin) assessed as dissociation constant by fluorescence polarization analysis.

For data set [7], the species on record is Homo sapiens. Put plainly: Selectivity ratio of Kd for CBX1 (unknown origin) to Kd for CBX8 (unknown origin).
The species entered for data set [8] is Homo sapiens. Put plainly: Selectivity ratio of Kd for CBX2 (unknown origin) to Kd for CBX8 (unknown origin).
The species entered for data set [9] is Homo sapiens. Put plainly: Selectivity ratio of Kd for CBX4 (unknown origin) to Kd for CBX8 (unknown origin).
For data set [10], the species on record is Homo sapiens. Put plainly: Selectivity ratio of Kd for CBX7 (unknown origin) to Kd for CBX6 (unknown origin).
The species entered for data set [11] is Homo sapiens. Put plainly: Selectivity ratio of Kd for CBX7 (unknown origin) to Kd for CBX8 (unknown origin).
In data set [12] the target is T3, Chromobox protein homolog 6. Put plainly: Inhibition of CBX6 (unknown origin) assessed as […] by competitive FP assay.
The target of data set [13] is T4, Chromobox protein homolog 7. Put plainly: Inhibition of CBX7 (unknown origin) assessed as […] by competitive FP assay.
The target of data set [14] is T5, Chromobox protein homolog 8. Put plainly: Inhibition of CBX8 (unknown origin) assessed as […] by competitive FP assay.
The species entered for data set [15] is Homo sapiens. Put plainly: Selectivity ratio of IC50 for CBX7 (unknown origin) to IC50 for CBX8 (unknown origin).
For data set [16], the species on record is Homo sapiens. Put plainly: Selectivity ratio of IC50 for CBX4 (unknown origin) to IC50 for CBX7 (unknown origin).
Data set [17] can be described thus: Drug uptake in cytoplasm of human TOV21G cells by live cell imaging analysis. The data set is classed as ADME, cell-based.
Data set [18] in a line: Drug uptake in cytoplasm of human PC3 cells by live cell imaging analysis. It counts as ADME, cell-based. Conditions: pc-3; call rule not given here.
Data set [19] in a line: Drug uptake in human TOV21G cells assessed as endosomal entrapment by measuring characteristic punctate dots in the cytoplasm at 10 uM by cell imaging analysis. It counts as ADME, cell-based.
Data set [20] in a line: Drug uptake in human PC3 cells assessed as endosomal entrapment by measuring characteristic punctate dots in the cytoplasm at 10 uM by cell imaging analysis. The data set is classed as ADME, cell-based. Conditions: pc-3, 10 µM.
Data set [21] in a line: Drug uptake in human TOV21G cells by flow cytometric analysis. It counts as ADME, cell-based.
Data set [22] is described as follows: Drug uptake in nucleus of human PC3 cells by live cell imaging analysis. It counts as ADME, cell-based. Particulars: pc-3.
A short description of data set [23]: Drug uptake in nucleus of human TOV21G cells by live cell imaging analysis. It counts as ADME, cell-based.
For data set [24], the system named is TOV21G. Put plainly: Effect on cell cycle in human TOV21G cells by measuring cells distribution at G0 phase. The data set is classed as cell-based.
The test system of data set [25] is TOV21G. Put plainly: Effect on cell cycle in human TOV21G cells by measuring cells distribution at G1 phase. The data set is classed as cell-based.
Data set [26] concerns TOV21G. Put plainly: Effect on cell cycle in human TOV21G cells by measuring cells distribution at S phase. It counts as cell-based.
Data set [27] concerns TOV21G. Put plainly: Effect on cell cycle in human TOV21G cells by measuring cells distribution at G2/M phase. It counts as cell-based.

Non-standard residues stand in square brackets, D forms with d. Residues, ends and D or L forms follow the SMILES beside them. *: point of attachment. X1 = O=C(O)c1cc(NC(=S)*)ccc1-c1c2ccc(=O)cc-2oc2cc(O)ccc12; Lys(Me3) = C[N+](C)(C)CCCC[C@H](N)C(=O)O; Benzoyl(4-Br) = O=C(c1ccc(Br)cc1)*; Gly(cPent) = N[C@H](C(=O)O)C1CCCC1; Abu = CC[C@H](N)C(=O)O; βAla = NCCC(=O)O

Chain of Chromobox protein homolog 1 (P83916 whole entry): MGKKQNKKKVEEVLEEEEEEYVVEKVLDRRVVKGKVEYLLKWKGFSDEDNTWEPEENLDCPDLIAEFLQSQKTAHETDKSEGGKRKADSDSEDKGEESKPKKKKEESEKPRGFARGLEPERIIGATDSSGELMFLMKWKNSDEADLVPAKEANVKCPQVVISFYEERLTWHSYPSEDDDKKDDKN

As to `CC[C@H](NC(=O)[C@H](Cc1ccccc1)NC(=O)[C@H](Cc1ccccc1)NC(C)=O)C(=O)N[C@H](C(=O)N[C@@H](CCCC[N+](C)(C)C)C(=O)N[C@@H](CO)C(=O)N[C@@H](CCC(=O)O)C(=O)N[C@@H](CCCCNC(=S)Nc1ccc(-c2c3ccc(=O)cc-3oc3cc(O)ccc23)c(C(=O)O)c1)C(N)=O)C1CCCC1` (Ac-FF[Abu][Gly(cPent)][Lys(Me3)]SEK(X1)-NH2), the equilibrium dissociation constant (Kd) in data set [1] turned out to be 99 µM; in data set [2] it was 10 µM; in data set [3] it was 11.3 µM; in data set [4] it was 400 nM; in data set [5], 1500 nM; in data set [6] it was 700 nM. Moreover, the Selectivity ratio in the data set filed under Homo sapiens [7] is 14 to 135; in the data set listed under Homo sapiens [8], 14 to 135; in the data set filed under Homo sapiens [9], 14 to 135; in the data set listed under Homo sapiens [10], 4; in the data set listed under Homo sapiens [11] it was 2.

Take `CC[C@H](NC(=O)[C@H](Cc1ccccc1)NC(=O)c1ccc(Br)cc1)C(=O)N[C@H](C(=O)N[C@@H](CCCC[N+](C)(C)C)C(=O)N[C@@H](CO)C(=O)N[C@@H](CCC(=O)O)C(N)=O)C1CCCC1` ({Benzoyl(4-Br)}-F[Abu][Gly(cPent)][Lys(Me3)]SE-NH2): the results for the half-maximal inhibitory concentration (IC50) in data set [12], in data set [13] and in [14] were 2800 nM, 8.3 µM and 3.8 µM, respectively. For the same compound, the Ratio IC50 in the data set listed under Homo sapiens [15] came out at 2; in the data set filed under Homo sapiens [16], 10.

Consider `CC(C)C[C@H](NC(=O)[C@H](C)NC(=O)[C@H](Cc1ccccc1)NC(=O)[C@H](Cc1ccccc1)NC(=O)CCNC(=S)Nc1ccc(-c2c3ccc(=O)cc-3oc3cc(O)ccc23)c(C(=O)O)c1)C(=O)N[C@@H](CCCC[N+](C)(C)C)C(=O)N[C@@H](CO)C(N)=O` ({X1-βAla}-FFAL[Lys(Me3)]S-NH2), for which the dissociation constant (Kd) in data set [1] was 47 µM; in data set [2], 3.1 µM; in [3] it was 1.7 µM; in data set [4], 1100 nM; in data set [5], 1600 nM; in data set [6] it was 1700 nM. Besides, the Drug uptake entry is listed as “Not Active” in data set [17]; “Not Active” in [18]; “Active” in data set [19]; “Active” in data set [20]; “Active” in data set [21]; “Not Active” in [22]. For the same compound, the Drug uptake result in data set [23] is given as “Not Active”. In addition, the Activity result with TOV21G [24], with TOV21G [25], in the data set on TOV21G [26] and with TOV21G [27] was “Non-Toxic” throughout.

One may read the Kd as the equilibrium constant for the complex coming apart. Usually IC50 stands for the concentration that inhibits the measured activity by half.
